According to patent US20010041745A1, “Methods for increasing levels of acetylcholine” (priority 1999, published 2001):
Structures can show the parent of a compound that is named as a salt.

Experiments:
[1] = tested on: choline acetyltransferase (ChAT); assay: ChAT activity in hippocampus and frontal cortex homogenates of ovariectomized (OVX) rats, radio-labelled assay of acetylcholine bio-synthesis; assay type: in vivo, female Sprague-Dawley rats; conditions: dosed daily s.c. or oral gavage for 10 days; for levels of ChAT, difference from the sham controls: same doses as E1; for levels of ChAT versus the OVX controls: tamoxifen 3 or 10 mg/kg/day, raloxifene hydrochloride 3 mg/kg/day, estradiol benzoate 0.03 or 0.3 mg/kg/day
Experimental: Forty female Sprague-Dawley rats (weight range of 300 to 325 g, six months old) are obtained from Harlan. The animals are either bilaterally ovariectomized (OVX) or exposed to a Sham surgical procedure, and then shipped after about one week. Upon arrival, they are housed in metal hanging cages in groups of 3 or 4 per cage and have ad libitum access to food and water for one week. Room temperature is maintained at 22.20±1.7° C. with a minimum relative humidity of 40%. The photoperiod in the room is 12 hours light and 12 hours dark.
The animals are dosed daily by subcutaneous injection or oral gavage with either tamoxifen, at 3 mg/kg/day or 10 mg/kg/day in a vehicle containing 10% cyclodextrin, raloxifene hydrochloride, at 3 mg/kg/day in a vehicle containing 10% cyclodextrin, estradiol benzoate at 0.03 or 0.3 mg/kg/day, or vehicle control. Animals were treated for 10 days. There are twenty animals per each dosing regimen. At the appropriate time intervals, the animals are sacrificed and their brains dissected. The particular portions of the brains are homogenized and assayed. Homogenates from the hippocampus and frontal cortex were processed and determination of ChAT activity was made by a radio-labelled assay of the bio-synthesis of acetylcholine. This procedure may be found in Schoepp et al., J. Neural Transmiss., 78:183-193, 1989, the teachings of which are incorporated by reference.

[2] = Amelioration of Alzheimer's disease in post-menopausal women after chronic administration; assay type: in vivo, human; conditions: post-menopausal women with Alzheimer's disease; 20 mg per day, oral, 2-12 months
Excerpt: Thus, the current invention provides methods for the treatment and prophylaxis of syndromes related to the loss of memory, learning, and cognitive function, often seen in women who are estrogen deprived, especially post-menopausal women. An example of such a syndrome is senile dementia of the Alzheimer's type. Beneficial effects, such as a decrease in memory loss, associated with administration of a compound of this invention become apparent after chronic administration.

[3] = Prophylactic use: cognitive and memory function by standard tests in peri- or post-menopausal women; assay type: in vivo, human; conditions: 20 mg/day, oral, 1-5 years
Experimental: The methods of the present invention may also be employed in a prophylactic modality. […] Following the establishment of this baseline, the women are administered tamoxifen at 20 mg/day, via the oral route, for a period 1-5 years.

ChAT = conditions: rats; literature (Luine et al. 1980, Luine 1985, Singh et al. 1994); cited from earlier work

C[C@]12CC[C@@H]3c4ccc(OC(=O)c5ccccc5)cc4CC[C@H]3[C@@H]1CC[C@@H]2O [estradiol benzoate]
levels of ChAT, difference from the sham controls [1]: insignificant difference
levels of ChAT versus the OVX controls [1]: significantly (p<0.01) increased levels of ChAT

O=C(c1ccc(OCCN2CCCCC2)cc1)c1c(-c2ccc(O)cc2)sc2cc(O)ccc12 [raloxifene hydrochloride]
levels of ChAT, difference from the sham controls [1]: insignificant difference
levels of ChAT versus the OVX controls [1]: significantly (p<0.01) increased levels of ChAT

CC/C(=C(\c1ccccc1)c1ccc(OCCN(C)C)cc1)c1ccccc1 [tamoxifen]
levels of ChAT, difference from the sham controls [1]: insignificant difference
levels of ChAT versus the OVX controls [1]: significantly (p<0.05) increased levels of ChAT
effect on Alzheimer's disease [2]: amelioration of their disease
cognitive and memory functions relative to matched patients given placebo [3]: decrease in loss of these functions

estrogen
level of acetylcholine / ChAT in the hippocampus (ChAT): increases the level of acetylcholine by up-regulating ChAT
